Source: patent US11414374B2, “Crystalline forms of vilanterol trifenatate and processes for their preparation” (Hovione Scientia Limited, priority 2017, dated 2022)
Values after ≈ are worked out from the molar mass of the structure shown. “Also recorded” adds a separate entry of the source. Blank lines part the entries; values can stand above or below the molecule they belong to.

How the values were obtained:
Format in all cases: physicochemical
[1] = TGA / TGA-EGA thermogravimetric analysis with evolved gas analysis; conditions: for EGA: evolved solvent identified; for TGA overall weight loss: overall loss of the named solvent(s)
Description: The analysis was carried out using the Mettler Toledo TGA/DSC1. The sample was weighed in an aluminum pan hermetically sealed with an aluminum pierced cover. The analysis was performed heating the sample from 25° C. to 320° C. at 10° C./min. TGA-FTIR coupled with Thermo Nicoled is 10 spectometer. The analysis was carried out using the mettler toledo TGA/DSC1. The sample was weighed in an aluminum pan hermetically sealed with an aluminum pierced cover. The analysis was performed heating the sample from 25° C. to 320° C. at 10° C./min. The evolved gas is compared with ft-ir spectra database for identification.

[2] = Stability test (exposed sample 16 h), form by XRPD; conditions: resulting form
[3] = DSC - differential scanning calorimetry; conditions: for DSC (onset) endo. degradation: endothermic event: degradation; for DSC (onset) endo. solvent loss + melting: endothermic event: solvent loss + melting (Form 6: + Form 2 melting; Form 14: + Form 3 melting); for DSC (onset) endo. solvent loss: endothermic event: solvent loss
Description: The analysis was carried out using a DSC Q200 TA instruments equipped with a refrigerator cooling system (RCS40) and autosampler. The sample was weighed in an aluminum hermetic pan with pinhole. The analysis was performed heating the sample from 25° C. to 350° C. at 10° C./min.

XRPD after Grinding = conditions: resulting form after grinding
[4] = Stability test (60° C. 75% RH-3 d), form by XRPD; conditions: resulting form
[5] = Storage stability of exposed powder at 25° C. and 60% RH for seven days, compared by XRPD; conditions: for Stability test (25° C. 60% RH-7 d): resulting form
Description: Approximately 30 mg of exposed powder of comparative form 1 and new forms II and III, respectively, were stored at 25′C and 60% RH for seven days. Each powder was then analyzed by XRPD and its diffraction pattern was compared with that of untreated sample.

[6] = Dynamic vapor sorption (DVS) analysis / hygroscopicity (EP 7.0 classification); conditions: for Hygroscopically (DVS): DVS hygroscopicity class; for XRPD after DVS: resulting form after DVS; for mass increase by dynamic vapor sorption analysis (hygroscopicity): first sorption cycle, relative to 40% RH; for Change In Mass (%) Desorption / Change In Mass (%) Hysteresis / Change In Mass (%) Sorption: DVS, 25° C.
Description: The hygroscopicity value is directly obtained from the sorption row at 80% RH, cycle 1.
Hygroscopicity of a sample of each of new form II and comparative form I was determined using the protocol provided below in conditions of 80% RH and 25° C.
The sample was subjected to DVS measuring using SMS-DVS intrinsic. The kinetic moisture sorption measurement was performed at 25° C. and in a RH % range described in the following: • From 40% RH to 90% RH • Form 90% RH to 0% RH • From 0% RH to 90% RH • From 90% RH to 0% RH
The sample was analyzed by XRPD after the analysis.
The hygroscopicity was calculated using the following equation: % Weight Change=[(W2−W1)/W1]*100 W1: weight of sample at the start of the experiment (25° C. and 40% RH) W2: weight of sample at 25° C. and 80% RH in the first absorption cycle

[7] = Stability test (sealed vial 18 h), form by XRPD; conditions: resulting form
[8] = Micronization in fluid energy jet mill: particle size distribution and XRPD of product
Source text: Vilanterol trifenatate form II is fed to a fluid energy jet mill at 10-100 g/h, operated with N2 at a pressure of 1 to 8 bar for the venturi and a pressure of 1 to 8 bar for the ring.

[9] = Visual solubility in differing solvents (European Pharmacopeia 6.0 section 5.11)
Description: Visual solubility of certain forms (compounds) in differing solvents was assessed according to the procedure described in the European Pharmacopeia 6.0 section 5.11. p. The compound was shaken vigorously for 1 min and placed in a constant temperature device for 15 min at 25.0±0.5° C. If the compound was not completely dissolved, the shaking was repeated for 1 min and the tube placed in a constant temperature device for 15 min. 50 mg of compound was weighed in a stoppered tube, 0.05 mL of the solvent added and the Dissolving Procedure (see above) followed. If the compound was completely dissolved, it is very soluble. If the compound was not completely dissolved, a further 0.45 mL of the solvent was added and the Dissolving Procedure (see above) followed. […] If the compound was still not completely dissolved, still further 1.0 mL of the solvent was added and the Dissolving Procedure (see above) followed. If the compound was completely dissolved, it is soluble. If the compound was still not completely dissolved, another 3.5 mL of the solvent was added and the Dissolving Procedure (see above) followed. […] If the compound was still not completely dissolved, the compound is slightly soluble or very slightly soluble. In this case, and the suspension was heated up to the boiling point (max 80° C.) under stirring to verify the solubility at high temperature. The hot solution was afterwards cooled to room temperature to observe whether the compound precipitates. If the compound at room temperature was completely dissolved, it is soluble at high temperature. [table]

EGA ([1]; listed as Form 10): Ethanol
Stability test (exposed sample 16 h) ([2]; listed as Form 10): Form 10
DSC (onset) endo. degradation ([3]; listed as Form 10): endo. 188 °C
DSC (onset) endo. solvent loss + melting ([3]; listed as Form 10): endo. 69 °C solvent
XRPD after Grinding (XRPD after Grinding; listed as Form 10): Amorphous
Stability test (60° C. 75% RH-3 d) ([4]; listed as Form 10): Form 1
Stability test (25° C. 60% RH-7 d) ([5]; listed as Form 10): Form 1
Hygroscopically (DVS) ([6]; listed as Form 10): Slightly
XRPD after DVS ([6]; listed as Form 10): Form 1
Stability test (sealed vial 18 h) ([7]; listed as Form 10): Form 10
Structure (SMILES): OCc1cc([C@@H](O)CNCCCCCCOCCOCc2c(Cl)cccc2Cl)ccc1O [form X, vilanterol trifenatate]

EGA ([1]; listed as Form 9): Nitromethane
Stability test (exposed sample 16 h) ([2]; listed as Form 9): Form 9
DSC (onset) endo. degradation ([3]; listed as Form 9): endo. 188 °C
DSC (onset) endo. solvent loss + melting ([3]; listed as Form 9): endo. 100 °C solvent
DSC (onset) endo. solvent loss ([3]; listed as Form 9): endo. 68 °C solvent loss
XRPD after Grinding (XRPD after Grinding; listed as Form 9): Amorphous
Stability test (60° C. 75% RH-3 d) ([4]; listed as Form 9): Partial conversion
Stability test (25° C. 60% RH-7 d) ([5]; listed as Form 9): Form 9
Hygroscopically (DVS) ([6]; listed as Form 9): Slightly
XRPD after DVS ([6]; listed as Form 9): Low crystallinity
Stability test (sealed vial 18 h) ([7]; listed as Form 9): Form 9
Structure (SMILES): OCc1cc([C@@H](O)CNCCCCCCOCCOCc2c(Cl)cccc2Cl)ccc1O [form IX, vilanterol trifenatate]

EGA ([1]; listed as Form 6): 2-Propanol
TGA overall weight loss ([1]; listed as Form 6): One weight loss of 73% w/w
Stability test (exposed sample 16 h) ([2]; listed as Form 6): Form 12
DSC (onset) endo. solvent loss + melting ([3]; listed as Form 6): endo. 80 °C solvent loss +
DSC (onset) endo. solvent loss ([3]; listed as Form 6): endo. 65 °C solvent loss
Stability test (60° C. 75% RH-3 d) ([4]; listed as Form 6): Amorphous
Stability test (25° C. 60% RH-7 d) ([5]; listed as Form 6): Form 1 (almost
XRPD after DVS ([6]; listed as Form 6): Form 6
Stability test (sealed vial 18 h) ([7]; listed as Form 6): Form 6
Structure (SMILES): OCc1cc([C@@H](O)CNCCCCCCOCCOCc2c(Cl)cccc2Cl)ccc1O [form VI, vilanterol trifenatate]
Hygroscopically (DVS) ([6]; listed as Form 6): Slightly hygroscopic (Increase in mass is less than 2% and equal to or greater than 0.2%)

particle size distribution Dv90 after micronization ([8]; fluid energy jet mill, N2): below 10 μm
solubility at 15 min ([9]; ethanol, 50 °C, organic solvent or mixture, thermodynamic from solid, ethanol at 50° C., read-out: visual solubility in ethanol): 10 to 33 mg/mL (≈ 20.6 to 67.8 mM)
visual solubility in water ([9]; water at 75° C.): insoluble
mass increase by dynamic vapor sorption analysis (hygroscopicity) ([6]; 80% RH and 25° C.): 0.04%
mass increase by dynamic vapor sorption analysis (hygroscopicity) ([6]; 80% RH and 25° C., listed as polymorph II): 0.04%
Change In Mass (%) Desorption ([6]; Cycle 1, target RH 0.0%): −0.03351%
Change In Mass (%) Desorption ([6]; Cycle 1, target RH 10.0%): −0.01706%
Change In Mass (%) Desorption ([6]; Cycle 1, target RH 20.0%): −0.00684%
Change In Mass (%) Desorption ([6]; Cycle 1, target RH 30.0%): 0.00031%
Change In Mass (%) Desorption ([6]; Cycle 1, target RH 40.0%): 0.00692%
Change In Mass (%) Hysteresis ([6]; Cycle 1, target RH 40.0%): 0.00707%
Change In Mass (%) Sorption ([6]; Cycle 1, target RH 40.0%): −0.00015%
Change In Mass (%) Desorption ([6]; Cycle 1, target RH 50.0%): 0.01476%
Change In Mass (%) Hysteresis ([6]; Cycle 1, target RH 50.0%): 0.00868%
Change In Mass (%) Sorption ([6]; Cycle 1, target RH 50.0%): 0.00607%
Change In Mass (%) Desorption ([6]; Cycle 1, target RH 60.0%): 0.02244%
Change In Mass (%) Hysteresis ([6]; Cycle 1, target RH 60.0%): 0.00892%
Change In Mass (%) Sorption ([6]; Cycle 1, target RH 60.0%): 0.01353%
Change In Mass (%) Desorption ([6]; Cycle 1, target RH 70.0%): 0.03051%
Change In Mass (%) Hysteresis ([6]; Cycle 1, target RH 70.0%): 0.00892%
Change In Mass (%) Sorption ([6]; Cycle 1, target RH 70.0%): 0.0216%
Change In Mass (%) Desorption ([6]; Cycle 1, target RH 80.0%): 0.04181%
Change In Mass (%) Hysteresis ([6]; Cycle 1, target RH 80.0%): 0.0043%
Change In Mass (%) Sorption ([6]; Cycle 1, target RH 80.0%): 0.0375%
Change In Mass (%) Desorption ([6]; Cycle 1, target RH 90.0%): 0.05802%
Change In Mass (%) Sorption ([6]; Cycle 1, target RH 90.0%): 0.05802%
Change In Mass (%) Sorption ([6]; Cycle 2, target RH 0.0%): −0.03351%
Change In Mass (%) Sorption ([6]; Cycle 2, target RH 10.0%): −0.0229%
Change In Mass (%) Sorption ([6]; Cycle 2, target RH 20.0%): −0.01545%
Change In Mass (%) Sorption ([6]; Cycle 2, target RH 30.0%): −0.00907%
Change In Mass (%) Sorption ([6]; Cycle 2, target RH 40.0%): −0.00261%
Change In Mass (%) Sorption ([6]; Cycle 2, target RH 50.0%): 0.00277%
Change In Mass (%) Sorption ([6]; Cycle 2, target RH 60.0%): 0.01068%
Change In Mass (%) Sorption ([6]; Cycle 2, target RH 70.0%): 0.01821%
Change In Mass (%) Sorption ([6]; Cycle 2, target RH 80.0%): 0.03189%
Change In Mass (%) Sorption ([6]; Cycle 2, target RH 90.0%): 0.04819%
stability / XRPD pattern after DVS analysis ([6]; XRPD after DVS analysis, compared with untreated sample): showed stability after DVS analysis
Structure (SMILES): OCc1cc([C@@H](O)CNCCCCCCOCCOCc2c(Cl)cccc2Cl)ccc1O [form II, vilanterol trifenatate]
XRPD of micronized product versus starting material ([8]; after fluid energy jet milling): identical to the one of the starting material
modifications in XRPD pattern after storage (structural stability) ([5]; 60% RH and 25° C. for 7 days, exposed powder): No significant modifications in XRPD pattern
hygroscopicity classification according to the European Pharmacopoeia (EP, version 7.0) ([6]; 80% RH and 25° C.): non-hygroscopic; also recorded: not hygroscopic

EGA ([1]; listed as Form 8): Anisole
TGA overall weight loss ([1]; listed as Form 8): of approx.. 68% w/w
Stability test (exposed sample 16 h) ([2]; listed as Form 8): Form 8
DSC (onset) endo. degradation ([3]; listed as Form 8): endo. 191 °C
DSC (onset) endo. solvent loss + melting ([3]; listed as Form 8): endo. 136 °C solvent
DSC (onset) endo. solvent loss ([3]; listed as Form 8): endo. 66 °C solvent loss
XRPD after Grinding (XRPD after Grinding; listed as Form 8): Strong crystallinity
Stability test (60° C. 75% RH-3 d) ([4]; listed as Form 8): Partial conversion
Stability test (25° C. 60% RH-7 d) ([5]; listed as Form 8): Strong crystallinity
Hygroscopically (DVS) ([6]; listed as Form 8): Not hygroscopic
XRPD after DVS ([6]; listed as Form 8): Form 8
Stability test (sealed vial 18 h) ([7]; listed as Form 8): Form 8
Structure (SMILES): OCc1cc([C@@H](O)CNCCCCCCOCCOCc2c(Cl)cccc2Cl)ccc1O [form VIII, vilanterol trifenatate]
